{
  "source": "patent US9326931B2",
  "about": "“Use of porphyrin-type catalytic oxidation compounds as an anti-dandruff agent” (L'OREAL, priority 2012, dated 2016)",
  "experiment": "Test 1: Oxidation of 2,2,6,6-tetramethylpiperidine (TEMP), EPR detection of TEMPO",
  "conditions": "porphyrin compound at 0.5 μM, 50 mM TEMP, phosphate buffer pH 7.4, oxygen-saturated, daylight, 1 hour",
  "method": "The oxidizing agent used in this test is dissolved oxygen. A solution comprising a phosphate buffer (pH 7.4), 50 mM of the compound 2,2,6,6-tetramethylpiperidine (TEMP) and a porphyrin compound at 0.5 μM is prepared. The solution is saturated with oxygen. The solution is placed in daylight. After 1 hour, electron paramagnetic resonance (EPR) spectrometry of the oxidized form of the compound 2,2,6,6-tetramethylpiperidine (TEMP), which corresponds to the compound […], known as TEMPO, is performed. In accordance with the scientific publication Lion et al., 1976; Moan and Wold, 1979, the presence of the compound in TEMPO form is indicative of the oxidation produced by oxygen on the compound 2,2,6,6-tetramethylpiperidine and thus of the catalytic effect of the porphyrin compound. […] With a porphyrin compound according to the invention, the appearance of the TEMPO compound is observed after 1 hour of placing in contact.",
  "data": [
    {"substance": "copper chlorophyllin", "values": [
      {"measurement": "catalytic oxidation activity: formation of the TEMPO compound from TEMP (test 1)", "value": "does not lead to the formation of the TEMPO compound"}
    ]}
  ]
}
